Assay results as given in ChEMBL document CHEMBL4507295 (2021).

What was measured:
[1] = target: TGF-beta receptor type-2 (Homo sapiens) (UniProt P37173); settings: Compound concentration 1000.0 nM
[2] = target: Serine/threonine-protein kinase MARK1 (Homo sapiens) (UniProt Q9P0L2); settings: Compound concentration 1000.0 nM
[3] = system: Receptor-type tyrosine-protein kinase FLT3 (Homo sapiens), P36888 [UNDEFINED MUTATION]; settings: Compound concentration 1000.0 nM
[4] = target: Tyrosine-protein kinase Fer (Homo sapiens) (UniProt P16591); settings: Compound concentration 1000.0 nM
[5] = target: Serine/threonine-protein kinase 36 (Homo sapiens) (UniProt Q9NRP7); settings: Compound concentration 1000.0 nM
[6] = target: NUAK family SNF1-like kinase 1 (Homo sapiens) (UniProt O60285); settings: Compound concentration 1000.0 nM
Chain of NUAK family SNF1-like kinase 1 (Homo sapiens) (O60285 whole entry): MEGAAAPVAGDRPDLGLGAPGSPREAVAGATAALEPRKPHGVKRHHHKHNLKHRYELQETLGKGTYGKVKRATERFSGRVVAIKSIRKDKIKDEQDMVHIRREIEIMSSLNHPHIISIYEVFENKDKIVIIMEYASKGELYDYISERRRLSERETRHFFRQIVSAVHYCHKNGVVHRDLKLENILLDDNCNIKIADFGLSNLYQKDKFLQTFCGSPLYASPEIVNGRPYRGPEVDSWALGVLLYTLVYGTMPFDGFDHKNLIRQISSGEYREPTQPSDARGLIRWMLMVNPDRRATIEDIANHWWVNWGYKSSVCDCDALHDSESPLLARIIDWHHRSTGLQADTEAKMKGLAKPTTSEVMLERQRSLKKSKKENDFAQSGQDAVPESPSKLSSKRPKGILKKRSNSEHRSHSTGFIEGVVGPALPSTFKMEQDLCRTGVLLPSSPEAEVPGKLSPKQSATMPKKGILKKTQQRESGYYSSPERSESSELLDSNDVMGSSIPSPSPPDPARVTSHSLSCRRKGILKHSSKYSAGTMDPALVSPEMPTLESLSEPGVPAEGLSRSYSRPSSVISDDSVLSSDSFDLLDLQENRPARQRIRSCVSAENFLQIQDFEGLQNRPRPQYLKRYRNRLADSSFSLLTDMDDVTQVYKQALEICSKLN

[7] = system: Receptor-type tyrosine-protein kinase FLT3 (Homo sapiens), P36888 [R834Q]; settings: Compound concentration 1000.0 nM
[8] = target: Insulin receptor-related protein (Homo sapiens) (UniProt P14616); settings: Compound concentration 1000.0 nM
[9] = system: Tyrosine-protein kinase ABL1 (Homo sapiens), P00519 [F317I]; settings: Compound concentration 1000.0 nM
[10] = target: Cyclin-dependent kinase 3 (Homo sapiens) (UniProt Q00526); settings: Compound concentration 1000.0 nM
[11] = target: ALK tyrosine kinase receptor (Homo sapiens) (UniProt Q9UM73); settings: Compound concentration 1000.0 nM
[12] = target: RAC-beta serine/threonine-protein kinase (Homo sapiens) (UniProt P31751); settings: Compound concentration 1000.0 nM
[13] = target: Mitogen-activated protein kinase kinase kinase 11 (Homo sapiens) (UniProt Q16584); settings: Compound concentration 1000.0 nM
[14] = target: Myotonin-protein kinase (Homo sapiens) (UniProt Q09013); settings: Compound concentration 1000.0 nM
[15] = target: Mitogen-activated protein kinase 6 (Homo sapiens) (UniProt Q16659); settings: Compound concentration 1000.0 nM
[16] = target: Serine/threonine-protein kinase PAK 1 (Homo sapiens) (UniProt Q13153); settings: Compound concentration 1000.0 nM
[17] = target: Serine/threonine-protein kinase MRCK beta (Homo sapiens) (UniProt Q9Y5S2); settings: Compound concentration 1000.0 nM
[18] = target: Casein kinase II subunit alpha' (Homo sapiens) (UniProt P19784); settings: Compound concentration 1000.0 nM
Chain of Casein kinase II subunit alpha' (Homo sapiens) (P19784 whole entry, looked up): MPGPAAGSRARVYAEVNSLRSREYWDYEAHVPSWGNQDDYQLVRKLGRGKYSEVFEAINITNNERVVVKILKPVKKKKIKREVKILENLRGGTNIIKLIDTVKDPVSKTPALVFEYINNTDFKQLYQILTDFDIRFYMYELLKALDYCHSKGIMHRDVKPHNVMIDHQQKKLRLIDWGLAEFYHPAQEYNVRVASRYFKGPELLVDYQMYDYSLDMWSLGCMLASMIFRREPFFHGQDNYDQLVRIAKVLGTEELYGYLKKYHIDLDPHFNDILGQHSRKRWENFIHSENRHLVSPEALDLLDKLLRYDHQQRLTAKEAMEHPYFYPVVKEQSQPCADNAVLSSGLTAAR

[19] = target: Tyrosine-protein kinase Fgr (Homo sapiens) (UniProt P09769); settings: Compound concentration 1000.0 nM
Chain of Tyrosine-protein kinase Fgr (Homo sapiens) (P09769 2-529 limits assumed): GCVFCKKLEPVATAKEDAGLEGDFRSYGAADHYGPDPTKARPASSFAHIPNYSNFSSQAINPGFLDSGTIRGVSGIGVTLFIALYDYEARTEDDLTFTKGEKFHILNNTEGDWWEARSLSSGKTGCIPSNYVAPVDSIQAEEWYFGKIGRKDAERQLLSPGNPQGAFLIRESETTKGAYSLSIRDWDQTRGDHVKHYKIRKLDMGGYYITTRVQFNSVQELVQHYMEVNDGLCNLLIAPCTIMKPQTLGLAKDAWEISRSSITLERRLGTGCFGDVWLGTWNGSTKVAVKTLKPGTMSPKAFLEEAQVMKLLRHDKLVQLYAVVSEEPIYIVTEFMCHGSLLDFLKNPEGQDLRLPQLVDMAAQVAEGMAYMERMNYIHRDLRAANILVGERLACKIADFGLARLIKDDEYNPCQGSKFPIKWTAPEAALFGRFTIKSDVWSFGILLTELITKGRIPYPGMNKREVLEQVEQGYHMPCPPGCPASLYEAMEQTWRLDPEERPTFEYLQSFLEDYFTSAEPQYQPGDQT

[20] = target: Proto-oncogene tyrosine-protein kinase receptor Ret (Homo sapiens) (UniProt P07949); settings: Compound concentration 1000.0 nM
[21] = target: Calcium/calmodulin-dependent protein kinase type IV (Homo sapiens) (UniProt Q16566); settings: Compound concentration 1000.0 nM
[22] = target: Aurora kinase B (Homo sapiens) (UniProt Q96GD4); settings: Compound concentration 1000.0 nM
Chain of Aurora kinase B (Homo sapiens) (Q96GD4 whole entry, canonical isoform): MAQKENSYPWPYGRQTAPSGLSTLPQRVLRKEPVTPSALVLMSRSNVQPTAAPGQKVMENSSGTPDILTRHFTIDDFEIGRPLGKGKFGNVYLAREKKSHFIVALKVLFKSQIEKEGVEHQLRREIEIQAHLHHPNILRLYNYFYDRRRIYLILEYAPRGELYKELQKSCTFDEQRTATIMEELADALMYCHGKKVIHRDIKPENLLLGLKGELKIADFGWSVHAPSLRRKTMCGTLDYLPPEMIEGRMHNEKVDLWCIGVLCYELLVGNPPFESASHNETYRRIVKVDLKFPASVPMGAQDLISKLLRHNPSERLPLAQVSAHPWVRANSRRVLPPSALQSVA

[23] = target: Phosphatidylinositol 4,5-bisphosphate 3-kinase catalytic subunit gamma isoform (Homo sapiens) (UniProt P48736); settings: Compound concentration 1000.0 nM
[24] = target: Serine/threonine-protein kinase haspin (Homo sapiens) (UniProt Q8TF76); settings: Compound concentration 1000.0 nM
Chain of Serine/threonine-protein kinase haspin (Homo sapiens) (Q8TF76 whole entry): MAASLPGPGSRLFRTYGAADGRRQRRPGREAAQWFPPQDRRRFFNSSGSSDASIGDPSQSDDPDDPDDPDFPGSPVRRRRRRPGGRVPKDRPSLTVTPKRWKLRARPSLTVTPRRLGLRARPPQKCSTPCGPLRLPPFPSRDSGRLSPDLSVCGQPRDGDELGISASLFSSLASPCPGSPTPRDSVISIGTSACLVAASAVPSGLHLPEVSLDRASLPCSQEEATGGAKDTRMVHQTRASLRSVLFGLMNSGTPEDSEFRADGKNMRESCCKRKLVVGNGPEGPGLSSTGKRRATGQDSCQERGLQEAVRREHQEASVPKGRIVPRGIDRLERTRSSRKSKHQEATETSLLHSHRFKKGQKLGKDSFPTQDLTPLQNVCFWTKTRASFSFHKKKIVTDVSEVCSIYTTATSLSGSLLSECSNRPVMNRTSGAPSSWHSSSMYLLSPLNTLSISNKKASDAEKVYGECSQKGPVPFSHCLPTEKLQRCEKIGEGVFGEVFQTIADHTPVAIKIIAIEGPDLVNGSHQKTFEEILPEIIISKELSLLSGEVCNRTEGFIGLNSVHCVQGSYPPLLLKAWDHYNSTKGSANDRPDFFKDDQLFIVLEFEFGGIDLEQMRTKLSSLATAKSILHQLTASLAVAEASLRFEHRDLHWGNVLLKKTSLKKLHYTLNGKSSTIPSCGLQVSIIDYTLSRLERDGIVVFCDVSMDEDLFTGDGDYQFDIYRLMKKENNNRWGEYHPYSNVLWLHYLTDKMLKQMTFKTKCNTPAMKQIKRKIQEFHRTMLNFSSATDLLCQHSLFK

[25] = target: Muscle, skeletal receptor tyrosine-protein kinase (Homo sapiens) (UniProt O15146); settings: Compound concentration 1000.0 nM
[26] = target: Serine/threonine-protein kinase MRCK gamma (Homo sapiens) (UniProt Q6DT37); settings: Compound concentration 1000.0 nM
[27] = target: Alpha-1B adrenergic receptor (Homo sapiens) (UniProt P35368); settings: Compound concentration 10.0 uM
[28] = target: Serine/threonine-protein kinase ULK1 (Homo sapiens) (UniProt O75385); settings: Compound concentration 1000.0 nM
Chain of Serine/threonine-protein kinase ULK1 (Homo sapiens) (O75385 whole entry): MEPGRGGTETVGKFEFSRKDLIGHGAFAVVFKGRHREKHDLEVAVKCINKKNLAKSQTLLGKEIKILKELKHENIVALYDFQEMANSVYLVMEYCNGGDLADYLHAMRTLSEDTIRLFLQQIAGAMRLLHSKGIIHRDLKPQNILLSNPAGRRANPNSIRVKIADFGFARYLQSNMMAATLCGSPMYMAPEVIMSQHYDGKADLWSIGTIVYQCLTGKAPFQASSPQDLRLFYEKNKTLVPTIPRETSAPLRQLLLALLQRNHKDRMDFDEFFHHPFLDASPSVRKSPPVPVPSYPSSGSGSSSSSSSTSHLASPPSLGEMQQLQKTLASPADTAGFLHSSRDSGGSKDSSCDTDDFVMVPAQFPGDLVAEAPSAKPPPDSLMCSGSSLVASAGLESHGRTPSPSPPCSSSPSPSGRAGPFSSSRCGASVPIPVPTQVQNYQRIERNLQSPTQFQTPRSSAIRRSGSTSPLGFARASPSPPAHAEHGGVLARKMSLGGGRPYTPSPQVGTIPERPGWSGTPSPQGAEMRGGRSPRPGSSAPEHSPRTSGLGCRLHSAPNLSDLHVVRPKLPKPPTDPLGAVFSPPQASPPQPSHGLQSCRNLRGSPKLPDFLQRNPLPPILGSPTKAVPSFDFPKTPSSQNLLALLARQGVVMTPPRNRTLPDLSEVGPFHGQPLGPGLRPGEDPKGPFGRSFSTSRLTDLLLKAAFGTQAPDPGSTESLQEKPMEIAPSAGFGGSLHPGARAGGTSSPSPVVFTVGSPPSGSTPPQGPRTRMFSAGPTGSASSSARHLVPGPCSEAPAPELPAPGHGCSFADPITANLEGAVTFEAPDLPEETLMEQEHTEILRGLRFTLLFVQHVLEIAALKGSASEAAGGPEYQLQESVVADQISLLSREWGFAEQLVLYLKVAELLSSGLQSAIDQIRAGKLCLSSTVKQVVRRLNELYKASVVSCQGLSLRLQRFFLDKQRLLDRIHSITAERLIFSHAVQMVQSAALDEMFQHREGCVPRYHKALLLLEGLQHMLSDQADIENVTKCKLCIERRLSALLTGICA

[29] = target: T1, Alpha-2B adrenergic receptor (Homo sapiens) (UniProt P18089); settings: Compound concentration 10.0 uM
T1 sequence (whole entry): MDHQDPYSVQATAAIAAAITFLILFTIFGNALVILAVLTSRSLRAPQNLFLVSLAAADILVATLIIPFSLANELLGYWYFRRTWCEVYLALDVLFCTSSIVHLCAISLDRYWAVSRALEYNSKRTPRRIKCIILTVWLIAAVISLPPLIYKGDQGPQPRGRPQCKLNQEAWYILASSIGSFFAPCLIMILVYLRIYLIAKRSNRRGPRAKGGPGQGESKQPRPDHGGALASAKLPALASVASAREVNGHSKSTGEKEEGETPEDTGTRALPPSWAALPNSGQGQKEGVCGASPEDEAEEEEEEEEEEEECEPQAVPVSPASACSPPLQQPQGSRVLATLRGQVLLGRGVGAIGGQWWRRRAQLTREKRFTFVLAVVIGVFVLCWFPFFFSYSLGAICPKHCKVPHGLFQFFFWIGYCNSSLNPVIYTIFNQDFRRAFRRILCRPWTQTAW

[30] = target: Fibroblast growth factor receptor 4 (Homo sapiens) (UniProt P22455); settings: Compound concentration 1000.0 nM
[31] = system: Receptor-type tyrosine-protein kinase FLT3 (Homo sapiens), P36888 [UNDEFINED MUTATION]; settings: Compound concentration 1000.0 nM; remark: listed apart in the source
[32] = target: Interleukin-1 receptor-associated kinase 1 (Homo sapiens) (UniProt P51617); settings: Compound concentration 1000.0 nM
[33] = system: Receptor-type tyrosine-protein kinase FLT3 (Homo sapiens), P36888 [D835H]; settings: Compound concentration 1000.0 nM
[34] = target: Serine/threonine-protein kinase Nek11 (Homo sapiens) (UniProt Q8NG66); settings: Compound concentration 1000.0 nM
[35] = target: RAF proto-oncogene serine/threonine-protein kinase (Homo sapiens) (UniProt P04049); settings: Compound concentration 1000.0 nM
Chain of RAF proto-oncogene serine/threonine-protein kinase (Homo sapiens) (P04049 whole entry): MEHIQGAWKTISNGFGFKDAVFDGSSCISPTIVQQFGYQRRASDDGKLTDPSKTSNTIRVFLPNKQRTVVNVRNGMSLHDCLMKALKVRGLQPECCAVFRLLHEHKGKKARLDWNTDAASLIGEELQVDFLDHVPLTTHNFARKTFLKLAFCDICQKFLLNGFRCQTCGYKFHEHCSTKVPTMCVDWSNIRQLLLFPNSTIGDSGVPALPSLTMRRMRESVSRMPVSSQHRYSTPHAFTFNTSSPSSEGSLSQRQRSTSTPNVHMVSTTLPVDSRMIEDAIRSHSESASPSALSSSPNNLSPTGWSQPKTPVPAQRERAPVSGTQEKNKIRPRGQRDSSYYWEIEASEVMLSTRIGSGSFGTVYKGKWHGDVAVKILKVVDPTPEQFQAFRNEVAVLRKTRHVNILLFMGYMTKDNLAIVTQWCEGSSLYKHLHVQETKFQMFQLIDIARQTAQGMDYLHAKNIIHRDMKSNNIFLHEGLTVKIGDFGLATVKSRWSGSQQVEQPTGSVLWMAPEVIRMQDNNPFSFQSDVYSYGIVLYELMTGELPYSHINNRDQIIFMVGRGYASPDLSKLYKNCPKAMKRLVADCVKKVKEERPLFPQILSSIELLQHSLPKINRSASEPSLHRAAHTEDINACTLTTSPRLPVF

[36] = target: Serine/threonine-protein kinase ULK2 (Homo sapiens) (UniProt Q8IYT8); settings: Compound concentration 1000.0 nM
[37] = target: Mitogen-activated protein kinase kinase kinase kinase 5 (Homo sapiens) (UniProt Q9Y4K4); settings: Compound concentration 1000.0 nM
[38] = target: Atypical kinase COQ8B, mitochondrial (Homo sapiens) (UniProt Q96D53); settings: Compound concentration 1000.0 nM
Chain of Atypical kinase COQ8B, mitochondrial (Homo sapiens) (Q96D53 whole entry): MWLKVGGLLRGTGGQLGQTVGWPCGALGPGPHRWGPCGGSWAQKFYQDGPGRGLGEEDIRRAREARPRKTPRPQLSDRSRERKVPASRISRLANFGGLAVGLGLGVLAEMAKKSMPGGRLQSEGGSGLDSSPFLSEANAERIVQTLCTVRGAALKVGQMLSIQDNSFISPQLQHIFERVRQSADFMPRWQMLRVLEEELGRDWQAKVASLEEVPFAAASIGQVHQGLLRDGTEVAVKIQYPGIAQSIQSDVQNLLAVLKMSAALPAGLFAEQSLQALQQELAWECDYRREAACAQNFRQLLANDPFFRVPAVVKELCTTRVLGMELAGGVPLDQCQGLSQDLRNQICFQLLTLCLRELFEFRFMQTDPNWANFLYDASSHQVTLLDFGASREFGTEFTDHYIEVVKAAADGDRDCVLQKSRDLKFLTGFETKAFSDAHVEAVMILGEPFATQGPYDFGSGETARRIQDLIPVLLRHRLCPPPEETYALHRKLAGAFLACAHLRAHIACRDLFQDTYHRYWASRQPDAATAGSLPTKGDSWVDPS

[39] = target: Vascular endothelial growth factor receptor 2 (Homo sapiens) (UniProt P35968); settings: Compound concentration 1000.0 nM

N#CC1(c2ccccn2)CCN(Cc2cc(C(=O)N3CCCC3)c(=O)n3ccccc23)CC1
inactive: residual activity [1] 93% | residual activity [2] 100% | residual activity [3] 100% | residual activity [4] 89% | residual activity [5] 98% | residual activity [6] 86% | residual activity [7] 100% | residual activity [8] 93% | residual activity [9] 75% | residual activity [10] 79% | residual activity [11] 100% | residual activity [12] 84% | residual activity [13] 89% | residual activity [14] 90% | residual activity [15] 79% | residual activity [16] 100% | residual activity [17] 63% | residual activity [18] 98% | residual activity [19] 100% | residual activity [20] 74% | residual activity [21] 96% | residual activity [22] 92% | residual activity [23] 75% | residual activity [24] 100% | residual activity [25] 90% | residual activity [26] 88% | inhibition [27] 1.36% | residual activity [28] 91% | inhibition [29] -2.99% | residual activity [30] 90% | residual activity [31] 90% | residual activity [32] 100% | residual activity [33] 87% | residual activity [34] 63% | residual activity [35] 100% | residual activity [36] 92% | residual activity [37] 75% | residual activity [38] 100% | residual activity [39] 92%

N#CC1(c2ccccn2)CCN(Cc2cc(C(=O)O)c(=O)n3ccccc23)CC1 [MSD-M1PAM]
inactive: residual activity [1] 93% | residual activity [2] 94% | residual activity [3] 92% | residual activity [4] 100% | residual activity [5] 100% | residual activity [6] 98% | residual activity [7] 100% | residual activity [8] 97% | residual activity [9] 81% | residual activity [10] 99% | residual activity [11] 100% | residual activity [12] 73% | residual activity [13] 100% | residual activity [14] 97% | residual activity [15] 100% | residual activity [16] 86% | residual activity [17] 96% | residual activity [18] 86% | residual activity [19] 94% | residual activity [20] 95% | residual activity [21] 84% | residual activity [22] 76% | residual activity [23] 91% | residual activity [24] 100% | residual activity [25] 96% | residual activity [26] 100% | inhibition [27] 6.68% | residual activity [28] 76% | inhibition [29] -6.86% | residual activity [30] 100% | residual activity [31] 94% | residual activity [32] 77% | residual activity [33] 100% | residual activity [34] 89% | residual activity [35] 100% | residual activity [36] 93% | residual activity [37] 87% | residual activity [38] 90% | residual activity [39] 79%
